Assay results: patent US11197857B2, “Combination therapy” (GlaxoSmithKline Intellectual Property Development Limited, priority 2016, dated 2021)

Assays:
Kidney cancer cell lines = test: 6-day growth-death assay (Cell Titer Glo); assay type: cell-based, human; settings: 10 cell lines
[1] = system: Bladder cancer cell lines; test: 6-day growth-death assay (Cell Titer Glo); assay type: cell-based, human; settings: 18 cell lines
[2] = system: Toledo (human DLBCL) xenograft; test: Toledo xenograft efficacy
[3] = system: non-TNBC breast cancer cell lines; test: cells; settings: Homo sapiens, read-out: Median gIC50
Description: Cell lines representing triple negative breast cancer (TNBC) are shown in orange; other subtypes are in blue.
(§1) The growth of all cell lines was evaluated over time across a wide range of seeding densities to identify conditions that permitted proliferation throughout the entire 6-day assay. Cells were plated at the optimal seeding density and after overnight incubation, a 20-point 2-fold titration of compound was added and plates were incubated for 6 days. A replicate plate of cells was harvested at the time of compound addition to quantify the starting number of cells (T0). Values obtained after the 6 day treatment were expressed as a function of the T0 value and plotted against compound concentration. The T0 value was normalized to 100% and represents the number of cells at the time of compound addition. The data were fit with a 4 parameter equation to generate a concentration response curve and the growth IC50 (gIC50) was determined. The gIC50 is the midpoint of the ‘growth window’, the difference between the number of cells at the time of compound addition (To) and the number of cells after 6 days (DMSO control). The growth-death assay can be used to quantify the net population change, clearly defining cell death (cytotoxicity) as fewer cells compared to the number at the time of compound addition (To).

Melanoma cell lines = test: 6-day growth-death assay (Cell Titer Glo); assay type: cell-based, human
[4] = system: 196 human cancer cell lines; test: 6-day growth-death assay (Cell Titer Glo); assay type: cell-based
HT144 = test: 6-day growth-death assay (Cell Titer Glo); assay type: cell-based, human
Source text: (§2) Cell Titer Glo was used to measure growth inhibition as previously described.

SK-MEL-5 = test: 6-day growth-death assay (Cell Titer Glo); assay type: cell-based, human
Source text: as §2

A375 = test: 6-day growth-death assay (Cell Titer Glo); assay type: cell-based, human
Source text: as §2

COLO741 = test: 6-day growth-death assay (Cell Titer Glo); assay type: cell-based, human
Source text: as §2

IGR-1 = test: 6-day growth-death assay (Cell Titer Glo); assay type: cell-based, human
Source text: as §2

SK-MEL-2 = test: 6-day growth-death assay (Cell Titer Glo); assay type: cell-based, human
Source text: as §2

MDA-MB-435S = test: 6-day growth-death assay (Cell Titer Glo); assay type: cell-based, human
Source text: as §2

Colon cancer cell lines = test: 6-day growth-death assay (Cell Titer Glo); assay type: cell-based, human
SKM-1 = test: 6-day growth-death assay (Cell Titer Glo); assay type: cell-based, human; settings: SKM-1, subtype M5
Description: as §1

MV-4-11 = test: 6-day growth-death assay (Cell Titer Glo); assay type: cell-based, human; settings: MV-4-11, subtype M5
Description: as §1

AML cell lines = test: 6-day growth-death assay (Cell Titer Glo); assay type: cell-based, human
rat 14-day MTD = settings: […] mg/kg
[5] = system: human renal cell carcinoma xenografts (ACHN); test: ACHN xenograft efficacy; assay type: in vivo, mouse
[6] = system: Prostate cancer cell lines; test: 6-day growth-death assay (Cell Titer Glo); assay type: cell-based, human; settings: 4 cell lines
Breast cancer cell lines = test: 6-day growth-death assay (Cell Titer Glo); assay type: cell-based, human; settings: 29 cell lines
Lymphoma cell lines = test: 6-day growth-death assay (Cell Titer Glo); assay type: cell-based, human; settings: 59 cell lines
Toledo cells = system: Toledo cells
Source text: FIG. 18: Propidium iodide FACS analysis of cell cycle in human lymphoma cell lines. […] Data represents the average±SEM of biological replicates, n=2.

NSCLC cell lines = test: 6-day growth-death assay (Cell Titer Glo); assay type: cell-based, human; settings: 25 cell lines
PRMT9 = PRMT9 (Homo sapiens, UniProt Q6P2P2); test: PRMT family radioactive assay; assay type: biochemical; settings: 60 minute SAM:Enzyme:Compound A preincubation
[7] = Homo sapiens, read-out: Median gIC50

PRMT9, sequence (Q6P2P2 whole entry): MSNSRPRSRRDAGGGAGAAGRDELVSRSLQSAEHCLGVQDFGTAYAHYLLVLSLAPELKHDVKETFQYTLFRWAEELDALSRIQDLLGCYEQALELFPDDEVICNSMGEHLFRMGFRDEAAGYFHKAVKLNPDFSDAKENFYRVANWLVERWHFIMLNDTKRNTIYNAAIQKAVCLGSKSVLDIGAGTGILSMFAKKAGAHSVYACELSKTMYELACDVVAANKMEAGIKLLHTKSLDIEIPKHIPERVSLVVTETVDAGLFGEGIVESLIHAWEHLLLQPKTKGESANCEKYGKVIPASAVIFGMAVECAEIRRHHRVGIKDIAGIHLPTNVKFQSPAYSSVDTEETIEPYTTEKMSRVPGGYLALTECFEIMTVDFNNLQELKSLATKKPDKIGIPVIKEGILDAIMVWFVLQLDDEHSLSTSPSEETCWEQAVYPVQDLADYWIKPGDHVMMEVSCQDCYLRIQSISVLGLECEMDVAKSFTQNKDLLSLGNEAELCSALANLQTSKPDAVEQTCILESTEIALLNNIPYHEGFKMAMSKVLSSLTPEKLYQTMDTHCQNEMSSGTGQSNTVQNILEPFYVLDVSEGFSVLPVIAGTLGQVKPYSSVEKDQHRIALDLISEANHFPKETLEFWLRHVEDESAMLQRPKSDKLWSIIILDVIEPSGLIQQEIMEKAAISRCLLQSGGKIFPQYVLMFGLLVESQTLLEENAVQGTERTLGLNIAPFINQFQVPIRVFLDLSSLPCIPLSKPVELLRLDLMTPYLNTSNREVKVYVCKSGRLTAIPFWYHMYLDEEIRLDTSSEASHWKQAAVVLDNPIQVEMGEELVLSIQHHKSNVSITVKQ

Structure (SMILES): CCOCC1(COCC)CCC(c2n[nH]cc2CN(C)CCNC)CC1 [Compound A]
- % Cytotoxic (cell lines with negative Ymin-T0) (Kidney cancer cell lines): 0%
- % gIC100 < 2 μM (share of cell lines) (Kidney cancer cell lines): 0%
- Median gIC100 (Kidney cancer cell lines): 29.35 µM
- % Cytotoxic (cell lines with negative Ymin-T0) [1]: 0%
- % gIC100 < 2 μM (share of cell lines) [1]: 0%
- Median gIC100 [1]: 29.33 µM
- Body weight Difference (vs. vehicle) ([2]; 300 mg/kg QD oral, day 28): −3%
- Regression ([2]; 300 mg/kg QD oral, day 28): (37%)
- Body weight Difference (vs. vehicle) ([2]; 450 mg/kg QD oral, day 28): −8%
- Regression ([2]; 450 mg/kg QD oral, day 28): (58%)
- Body weight Difference (vs. vehicle) ([2]; 600 mg/kg QD oral, day 28): −7%
- Regression ([2]; 600 mg/kg QD oral, day 28): (62%)
- Body weight Difference (vs. vehicle) ([2]; […] mg/kg QD oral, day 28): −4%
- body weight loss ([2]; any dose group, 150-600 mg/kg daily, 28 days): no significant body weight loss
- doses at which regressions were observed ([2]; oral, daily, 28 days): ≥ 300 mg/kg
- Body weight Difference (vs. vehicle) ([2]; second study, 37.5 mg/kg QD, day 25): −5%
- Body weight Difference (vs. vehicle) ([2]; second study, 75 mg/kg BID, day 25): −4%
- Body weight Difference (vs. vehicle) ([2]; second study, 75 mg/kg QD, day 25): −5%
- Body weight Difference (vs. vehicle) ([2]; second study, 150 mg/kg QD, day 25): −7%
- IC50 [3]: 6800 nM
- % Cytotoxic (cell lines with negative Ymin-T0) (Melanoma cell lines; Melanoma, 7 cell lines): 0%
- % gIC100 < 2 μM (share of cell lines) (Melanoma cell lines; Melanoma, 7 cell lines): 0%
- Median gIC100 (Melanoma cell lines; Melanoma, 7 cell lines): 29.33 µM
- nature of effect (Melanoma cell lines; all melanoma lines): cytostatic
- IC50 [4, 7]: 2120 nM
- % Cytotoxic (cell lines with negative Ymin-T0) ([4]; Total, 196 cell lines): 23%
- % gIC100 < 2 μM (share of cell lines) ([4]; Total, 196 cell lines): 4%
- Median gIC100 ([4]; Total, 196 cell lines): 29.33 µM
- Ymin-T0 (HT144): 124.9
- gIC100 (HT144): 29.33 ± 0.00 µM
- IC50 (SK-MEL-5; Homo sapiens, SK-MEL-5, read-out: gIC50): 90 ± 30 nM
- Ymin-T0 (SK-MEL-5; SK-MEL-5): 31.8
- gIC100 (SK-MEL-5; SK-MEL-5): 27.09 ± 3.92 µM
- Ymin-T0 (A375; A375): 91.9
- gIC100 (A375; A375): 29.33 ± 0.00 µM
- IC50 (A375; Homo sapiens, A-375, read-out: gIC50): 50 ± 30 nM
- Ymin-T0 (COLO741): 12.5
- gIC100 (COLO741): 28.55 ± 1.40 µM
- Ymin-T0 (IGR-1): 507.0
- gIC100 (IGR-1): 29.33 ± 0.00 µM
- Ymin-T0 (SK-MEL-2): 35.9
- gIC100 (SK-MEL-2): 22.37 ± 12.11 µM
- Ymin-T0 (MDA-MB-435S): 19.1
- gIC100 (MDA-MB-435S): 29.33 ± 0.00 µM
- % Cytotoxic (cell lines with negative Ymin-T0) (Colon cancer cell lines; Colon, 34 cell lines): 3%
- % gIC100 < 2 μM (share of cell lines) (Colon cancer cell lines; Colon, 34 cell lines): 0%
- Median gIC100 (Colon cancer cell lines; Colon, 34 cell lines): 29.33 µM
- IC50 (Colon cancer cell lines; [7]): 5510 nM
- Ymin-T0 (SKM-1): −19.1
- gIC100 (SKM-1): 11.61 ± 5.52 µM
- Ymin-T0 (MV-4-11): 565.6
- gIC100 (MV-4-11): 14.55 ± 4.27 µM
- number of cell lines in which cytotoxicity was induced (AML cell lines; 10 AML cell lines): 5
- % Cytotoxic (cell lines with negative Ymin-T0) (AML cell lines; AML, 10 cell lines): 50%
- % gIC100 < 2 μM (share of cell lines) (AML cell lines; AML, 10 cell lines): 0%
- Median gIC100 (AML cell lines; AML, 10 cell lines): 16.72 µM
- IC50 (AML cell lines; [7]): 540 nM
- Cave (total AUC or exposure) at MTD (rat 14-day MTD): 2100 nM
- Regression ([5]; 300 mg/kg QD oral, day 59): (2%)
- Body weight Difference (vs. vehicle) ([5]; 300 mg/kg QD, day 59): −4%
- Regression ([5]; 450 mg/kg QD oral, day 59): (15%)
- Body weight Difference (vs. vehicle) ([5]; 450 mg/kg QD, day 59): −7%
- Regression ([5]; 600 mg/kg QD oral, arm terminated at day 31): (6%)
- Body weight Difference (vs. vehicle) ([5]; 600 mg/kg QD, arm terminated at day 31): −17%
- body weight loss ([5]; 600 mg/kg daily): Significant body weight loss
- Body weight Difference (vs. vehicle) ([5]; […] mg/kg QD, day 59): −3%
- doses at which regressions were observed ([5]; oral, daily, up to 59 days): ≥ 300 mg/kg
- % Cytotoxic (cell lines with negative Ymin-T0) [6]: 0%
- % gIC100 < 2 μM (share of cell lines) [6]: 0%
- Median gIC100 [6]: 29.34 µM
- % Cytotoxic (cell lines with negative Ymin-T0) (Breast cancer cell lines): 10%
- % gIC100 < 2 μM (share of cell lines) (Breast cancer cell lines): 0%
- Median gIC100 (Breast cancer cell lines): 29.36 µM
- % Cytotoxic (cell lines with negative Ymin-T0) (Lymphoma cell lines): 54%
- % gIC100 < 2 μM (share of cell lines) (Lymphoma cell lines): 14%
- Median gIC100 (Lymphoma cell lines): 21.62 µM
- concentrations giving accumulation of cells in sub-G1 (Toledo cells; beginning after 3 days of treatment): 1000 nM
- concentrations giving increase in sub-G1 population (Toledo cells; by day 7): 100 nM
- % Cytotoxic (cell lines with negative Ymin-T0) (NSCLC cell lines): 16%
- % gIC100 < 2 μM (share of cell lines) (NSCLC cell lines): 0%
- Median gIC100 (NSCLC cell lines): 29.33 µM
- inhibition of activity (PRMT9): failed to inhibit
